Here are results for 13 molecules from ChEMBL document CHEMBL5149985, “Discovery of cytotoxic natural products from Red Sea sponges: Structure and synthesis” (Eur J Med Chem, 2021).

For orientation: pIC50 means −log10 of the IC50, conventionally taken in molar units. As a reminder, the pEC50 is the negative decadic logarithm of the EC50, by convention in mol/L. For orientation: IC50 means the concentration that inhibits the measured activity by half.

Assay [1] relates to MDA-MB-231. The experiment in a line: Anticancer activity against human MDA-MB-231 cells assessed as cell viability measured after 24 hrs by MTT assay. The class given is functional, cell-based. The settings on record: MDA-MB-231, 24 h.
Assay [2] concerns HeLa. Briefly: Antiproliferative activity against human HeLa cells assessed as cell viability measured after 24 hrs by MTT assay. The class given is functional, cell-based.
Assay [3] has as its system HCT-116. Briefly: Antiproliferative activity against human HCT-116 cells assessed as cell viability measured after 24 hrs by MTT assay. The following applies: HCT-116, 24 h. The class given is functional, cell-based. For orientation: Tetrazolium dyes change colour on reduction, which living cells bring about.
The test system of assay [4] is MDA-MB-231. The experiment in a line: Antimigratory activity against human MDA-MB-231 cells assessed as reduction in cell growth measured after 48 hrs by SRB assay. The settings on record: MDA-MB-231, 48 h. The class given is functional, cell-based. (The SRB assay estimates cell density from bound dye.)
The nature of assay [5]: Antiproliferative activity against mouse Pheochromocytoma cells(MPC) assessed as reduction in relative cell viability at 25 uM incubated for 24 hrs by proliferation assay relative to control. The class given is functional.
Assay [6] can be described thus: Antiproliferative activity against mouse Pheochromocytoma cells(MTT) assessed as reduction in relative cell viability at 25 uM incubated for 24 hrs by proliferation assay. The class given is functional.
Assay [7] in a line: Antiproliferative activity against mouse Pheochromocytoma cells(MTT) assessed as reduction in relative cell viability at 50 uM incubated for 24 hrs by proliferation assay. The format is functional.
Assay [8] is described as follows: Antiproliferative activity against mouse Pheochromocytoma cells(MPC) assessed as reduction in relative cell viability at 50 uM incubated for 24 hrs by proliferation assay relative to control. The format is functional.
Assay [9] in a line: Antiproliferative activity against mouse Pheochromocytoma cells(MTT) assessed as reduction in relative cell viability incubated for 24 hrs by proliferation assay. The format is functional, cell-based.
Assay [10] relates to MDA-MB-231. Briefly: Anticancer activity against human MDA-MB-231 assessed as inhibition of cell growth incubated for 48 hrs by SRB assay. The class given is functional, cell-based. The following applies: MDA-MB-231, 48 h.
Assay [11] concerns MDA-MB-231. The experiment in a line: Anticancer activity against human MDA-MB-231 cells assessed as inhibition of cell growth. The class given is functional, cell-based.
Assay [12] relates to HCT-116. Briefly: Anticancer activity against human HCT-116 cells assessed as reduction in cell viability measured after 72 hrs by MTT assay. The settings on record: HCT-116, 72 h.
Assay [13] deals with MDA-MB-231. The experiment in a line: Anticancer activity against human MDA-MB-231 cells assessed as reduction in cell viability measured after 72 hrs by MTT assay. The format is functional, cell-based. The following applies: MDA-MB-231, 72 h.
In assay [14] the test system is HeLa. Briefly: Anticancer activity against human HeLa cells assessed as reduction in cell viability measured after 72 hrs by MTT assay.
Assay [15] deals with HeLa. Briefly: Anticancer activity against human HeLa assessed as inhibition of cell growth incubated for 48 hrs by SRB assay. The format is functional, cell-based.
Assay [16] relates to P388. The experiment in a line: Anticancer activity against mouse p-388 cells assessed as cell growth inhibition incubated for 3 days. The format is functional, cell-based. The following applies: P388, 72 h.
Assay [17] concerns A549. Briefly: Anticancer activity against human A549 cells assessed as inhibition of cell growth incubated for 96 hrs. The settings on record: A549, 96 h. The class given is functional, cell-based.
For assay [18], the system named is PC-3. Briefly: Anticancer activity against human PC-3 cells assessed as inhibition of cell growth incubated for 96 hrs. The class given is functional, cell-based. The settings on record: PC-3, 96 h.
Assay [19] relates to HepG2. The experiment in a line: Anticancer activity against human HepG2 cells assessed as inhibition of cell growth incubated for 96 hrs. The class given is functional, cell-based. The settings on record: HepG2, 96 h.
For assay [20], the system named is MCF7. Briefly: Anticancer activity against human MCF7 cells assessed as inhibition of cell growth incubated for 48 hrs by ELISA based SRB assay. The class given is functional. The settings on record: MCF7, 48 h. In general terms: An ELISA detects its analyte on a solid surface through an enzyme-linked reagent.
Assay [21] has as its system HepG2. The experiment in a line: Anticancer activity against human HepG2 cells assessed as inhibition of cell growth incubated for 48 hrs by ELISA based SRB assay. The format is functional. The settings on record: HepG2, 48 h.
In assay [22] the test system is MDA-MB-231. Briefly: Anticancer activity against human MDA-MB-231 cells assessed as cell growth inhibition incubated for 48 hrs by MTT assay. The format is functional, cell-based. The following applies: MDA-MB-231, 48 h.
Assay [23] has as its system BT-474. The experiment in a line: Anticancer activity against human BT-474 cells assessed as cell growth inhibition incubated for 48 hrs by MTT assay. The following applies: BT-474, 48 h. The format is functional, cell-based.
The subject of assay [24] is SK-BR-3. The experiment in a line: Anticancer activity against human SK-BR-3 cells assessed as cell growth inhibition incubated for 48 hrs by MTT assay. The format is functional, cell-based. The following applies: SK-BR-3, 48 h.
The test system of assay [25] is T47D. Briefly: Anticancer activity against human T47D cells assessed as cell growth inhibition incubated for 48 hrs by MTT assay. The class given is functional, cell-based.
Assay [26] has as its system MCF7. The experiment in a line: Anticancer activity against human MCF7 cells assessed as cell growth inhibition incubated for 48 hrs by MTT assay. The class given is functional, cell-based. The settings on record: MCF7, 48 h.
The subject of assay [27] is HT-29. Briefly: Anticancer activity against human HT-29 cells assessed as cell growth inhibition. The format is functional, cell-based.
In assay [28] the test system is Caco-2. The experiment in a line: Anticancer activity against human Caco-2 cells assessed as inhibition of cell growth. The class given is functional, cell-based.
Assay [29] relates to HepG2. The experiment in a line: Anticancer activity against human HepG2 cells assessed as inhibition of cell growth. The format is functional, cell-based.
Assay [30] concerns KB 3-1. The experiment in a line: Anticancer activity against human KB 3-1 cells assessed as inhibition in cell growth. The class given is functional, cell-based.
Assay [31] concerns HCT-116. Briefly: Anticancer activity against human HCT-116 cells assessed as inhibition of cell growth measured after 72 hrs by MTT assay. The format is functional, cell-based. The settings on record: HCT-116, 72 h.
The subject of assay [32] is MDA-MB-231. Briefly: Antimigratory activity against human MDA-MB-231 cells assessed as inhibition of cell migration at 2 uM incubated for 24 hrs by […] relative to control. The format is functional. On the set-up: scale not given: the % may be the effect or the level left.
Assay [33] concerns MDA-MB-231. The experiment in a line: Antimigratory activity against human MDA-MB-231 cells assessed as inhibition of cell migration at 10 uM incubated for 24 hrs by scratch wound healing assay relative to control. The class given is functional. Also noted: scale not given: the % may be the effect or the level left.
Assay [34] relates to L5178Y. The experiment in a line: Anticancer activity against mouse L5178Y cells assessed as reduction in cell growth at 3 uG by [3H] Thymidine assay relative to control. The format is functional. The settings on record: dose 3 µg.
The test system of assay [35] is L5178Y. Briefly: Anticancer activity against mouse L5178Y cells assessed as reduction in cell growth at 10 uG by [3H] Thymidine assay relative to control. The format is functional. The following applies: dose 10 µg.
For assay [36], the system named is L5178Y. Briefly: Anticancer activity against mouse L5178Y cells assessed as reduction in cell growth by [3H] Thymidine assay relative to control. The format is functional, cell-based.

pEC50, pIC50: −log10 of the molar value.

For the molecule `COC1=C(Br)C[C@]2(OC=C1Br)ON=C(C(=O)NCCCOc1c(Br)cc(CCNC=C3C(=O)C=CC3=O)cc1Br)[C@@H]2O`, the pIC50 in assay [1] is 6.54; in [2], 5.68; in assay [3], 5.29; in assay [4], 6.51.

As to `COC1=C(Br)[C@H](O)[C@@]2(C=C1Br)CC(C(=O)NCCCCNC(=O)C1=NO[C@]3(C=C(Br)C(OC)=C(Br)[C@@H]3O)C1)=NO2` [AEROTHIONIN], the Activity in assay [5] is recorded as 83.7%; in assay [6], 82.8%; in assay [7], 48.3%; in assay [8], 55.1%. Besides, in assay [9], the pEC50 is 4.32. Also, the pIC50 in assay [2] was 4.54.

As for `COC1=C(Br)[C@@H]2OC(=O)C[C@]2(O)C=C1Br`, the pIC50 in assay [10] and in assay [11] was 4.74 in each case.

`O=c1[nH]cc(F)c(=O)[nH]1` [FLUOROURACIL]: the pIC50 in assay [12] is 5.34; in assay [13], 4.89; in [14], 4.91.

Take `CCOC(=O)Cc1c(O)cc(Br)c(O)c1Br`: the pIC50 in [15] and in assay [2] was 4.88 throughout.

With `CC[C@H]1CCCC[C@@]2(C[C@@H]3CC[C@@H]4[C@H](C(=O)OCCCCCCCCCCCCCCCC(=O)N(CCCN)CCCCN)[C@]5(CCC[C@@H](C)O5)NC(=[N+]34)N2)O1`, the IC50 in assay [16] worked out at 0.1 µg/mL.

For `CC(=O)O[C@@H]1OC=C2C1[C@]1(C)C(C[C@@H]2OC(C)=O)[C@]2(C)CCC3C(C)(C)CCC[C@]3(C)C2C[C@H]1O` (some centres undefined), the pIC50 in assay [17] is 7.57; in [18], 7.11; in assay [19] it was 7.39.

Turning to `CCCCCCCCCCCCCCCCCC[C@@H](O)C(=O)N[C@@H](CO)[C@H](O)[C@H](O)CCCCCCCCCCCCCCCC`, the pIC50 in assay [20] was 4.55; in assay [21], 4.60.

Consider `O[C@]12CCCCCC[C@@H]3CCN4CCC[C@](O)(CCCCCC[C@@H]5CCN(CCC1)[C@H]2O5)[C@@H]4O3`, for which the pIC50 in assay [22] is 4.82; in assay [23], 4.82; in assay [24], 4.74; in assay [25] it was 4.34; in assay [26], 5.07.

For `CC1=CC[C@H]2[C@@H]([C@@H]1CC[C@H]1[C@]3(C)CC[C@H](O)C(C)(C)O[C@H]3CC[C@]1(C)O)C(C)(C)CC[C@]2(C)O` [SIPHOLENOL L], the negative-log IC50 (pIC50) in assay [27] was 5.35; in assay [28] it was 4.57; in [29], 4.62; in [30], 8.29.

`CC(/C=C/c1ccccc1)=C\[C@H](O)[C@@H]1CCC(=O)N[C@@H](CO)C(=O)NC2C[n+]3cc(n([C@@H]4O[C@H](CO)[C@H](O)[C@H](O)[C@H]4O)c3)CC(NC(=O)CCC[C@@H](C(=O)[O-])NC(=O)[C@@H](O)CNC(=O)[C@H](Cc3ccc(Br)cc3)NC(=O)[C@H]([C@@H](O)C(N)=O)NC(=O)[C@H](CC(N)=O)NC2=O)C(=O)N[C@@H]([C@@H](C)O)C(=O)N[C@@H](CO)C(=O)N[C@@H](Cc2ccccc2)C(=O)N1` (some centres undefined): in [31], the pIC50 was 5.22.

With `CCOC(=O)NCCCCNC(=O)C1=NO[C@]2(C=C(Br)C(OC)=C(Br)[C@@H]2O)C1` [SUBEREAMOLLINE A], the pIC50 in [1] was 6.40. In addition, the Activity in [32] amounted to 38%; in [33], 52%.

Regarding `CC1(C)CCC[C@]2(C)[C@H]3C[C@@H](O)[C@]4(C)C5=C(COC5=O)[C@@H](O)C[C@H]4[C@]3(C)CC[C@@H]12`, the results for the “inhibition (INH)” value in assay [34] and in [35] were 40.5% and 55.3%, respectively. Also, the negative-log IC50 (pIC50) in [36] was 8.12.
